The text below walks through data of patent publication US9834551B2, “Substituted pyrrolo[2,3-b]pyrazines and substituted pyrazolo[3,4-b]pyridines as ITK and JAK kinase inhibitors” (Arrien Pharmaceuticals LLC, priority 2013, dated 2017).

For one series, the target named is JAK3 (Homo sapiens (Human), UniProt P52333). Put plainly: JAK3 kinase assay (radiometric filter assay). Format: biochemical. The settings on record: 10 μM ATP; 10-dose IC50 mode, 3 fold serial dilution starting at 100 μM; read-out: JAK3 kinase inhibition. On the procedure:
(§1) All additions were done on ice, followed by the addition of ATP mix. Wells were uniformly mixed using an Eppendorff plate shaker and incubated at 30° C. for 20 min, and stopped by the addition of 5 μL of 3% phosphoric acid. Volume was increased to 100 μL by adding 0.8% phosphoric acid which was then transferred to PC filter mats (Millipore), pre-equilibrated with 70% ethanol and water. Plates were washed thrice with 100 μL 0.8% phosphoric acid and dried for an hour at 60° C. 100 μL scintillation fluid was added into each well and reading taken in Perkin Elmer TOPCOUNT beta counter.
(§2) The reactions were carried out at 10 μM ATP for ITK, JAK3 and other TEC and Janus family of kinase.

Another series deals with ITK (Homo sapiens (Human), UniProt Q08881). Nature of the series: ITK kinase assay (radiometric filter assay). The format is biochemical. To be noted: 10 μM ATP; 10-dose IC50 mode, 3 fold serial dilution starting at 100 μM; read-out: ITK kinase inhibition. On the procedure: as §1, §2
Chain of ITK (Q08881 whole entry): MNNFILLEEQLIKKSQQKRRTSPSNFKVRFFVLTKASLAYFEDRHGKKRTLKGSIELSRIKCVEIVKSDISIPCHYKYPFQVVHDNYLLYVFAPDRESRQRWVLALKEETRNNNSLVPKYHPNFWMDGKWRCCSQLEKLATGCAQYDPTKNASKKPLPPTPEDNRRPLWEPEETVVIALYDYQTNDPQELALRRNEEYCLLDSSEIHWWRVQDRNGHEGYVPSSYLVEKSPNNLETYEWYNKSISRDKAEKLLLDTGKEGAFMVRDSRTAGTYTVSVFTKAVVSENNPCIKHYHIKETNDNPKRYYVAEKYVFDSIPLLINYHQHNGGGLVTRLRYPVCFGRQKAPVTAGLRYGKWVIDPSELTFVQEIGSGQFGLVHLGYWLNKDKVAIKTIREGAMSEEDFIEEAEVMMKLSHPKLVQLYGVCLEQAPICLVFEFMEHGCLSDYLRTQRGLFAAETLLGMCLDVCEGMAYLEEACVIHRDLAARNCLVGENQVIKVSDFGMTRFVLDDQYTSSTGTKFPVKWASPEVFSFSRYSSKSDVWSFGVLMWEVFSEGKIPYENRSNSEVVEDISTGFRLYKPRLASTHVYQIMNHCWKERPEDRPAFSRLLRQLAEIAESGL
Series [1] has as its system Established Type II Collagen Arthritis. Put plainly: Established type II collagen arthritis, PO BID, 11 day. The source says: Effects of 1H-pyrrolo[2,3-b]pyridine series of compounds Administered PO, BID in 11 Day DBA/1OlaHsd Mouse Established Type II Collagen Arthritis

Chain of JAK3 (P52333 whole entry): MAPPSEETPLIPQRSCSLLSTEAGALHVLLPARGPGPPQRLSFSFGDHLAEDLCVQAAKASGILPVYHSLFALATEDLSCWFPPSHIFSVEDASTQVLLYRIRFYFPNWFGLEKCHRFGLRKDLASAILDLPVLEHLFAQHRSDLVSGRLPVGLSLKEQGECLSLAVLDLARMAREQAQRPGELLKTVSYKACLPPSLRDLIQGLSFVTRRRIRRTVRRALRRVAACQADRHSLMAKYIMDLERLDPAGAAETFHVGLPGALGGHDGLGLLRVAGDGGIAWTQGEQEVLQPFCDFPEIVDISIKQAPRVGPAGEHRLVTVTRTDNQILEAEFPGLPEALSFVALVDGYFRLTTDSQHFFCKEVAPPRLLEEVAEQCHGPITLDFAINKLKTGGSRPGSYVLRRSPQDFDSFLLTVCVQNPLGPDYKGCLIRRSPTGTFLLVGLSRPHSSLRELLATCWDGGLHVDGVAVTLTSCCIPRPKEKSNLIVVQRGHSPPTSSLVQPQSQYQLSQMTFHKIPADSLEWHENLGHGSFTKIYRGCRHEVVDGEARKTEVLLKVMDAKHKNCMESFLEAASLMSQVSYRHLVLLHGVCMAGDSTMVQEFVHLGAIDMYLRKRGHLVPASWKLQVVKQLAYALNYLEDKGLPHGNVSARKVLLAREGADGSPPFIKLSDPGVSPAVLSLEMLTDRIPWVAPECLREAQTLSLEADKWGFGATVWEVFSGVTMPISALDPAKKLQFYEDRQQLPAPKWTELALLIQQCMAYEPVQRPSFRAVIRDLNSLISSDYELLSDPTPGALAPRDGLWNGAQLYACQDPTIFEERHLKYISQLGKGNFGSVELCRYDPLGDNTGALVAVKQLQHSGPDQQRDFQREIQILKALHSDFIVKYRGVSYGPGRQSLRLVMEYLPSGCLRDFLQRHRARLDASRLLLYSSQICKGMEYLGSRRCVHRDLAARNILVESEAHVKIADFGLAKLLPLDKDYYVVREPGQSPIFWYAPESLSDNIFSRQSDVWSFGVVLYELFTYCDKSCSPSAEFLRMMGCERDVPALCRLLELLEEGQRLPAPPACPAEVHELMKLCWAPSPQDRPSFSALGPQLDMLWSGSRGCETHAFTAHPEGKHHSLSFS

In the case of `C=CC(=O)Nc1cccc(-c2cnc3[nH]cc(NS(=O)(=O)CCC)c3c2)c1` [Example 97, N-(3-(3-(propylsulfonamido)-1H-pyrrolo[2,3-b]pyridin-5-yl)phenyl)acrylamide], the IC50 at JAK3 and at ITK was greater than 100 nM in each case.
On to `CCC#CC(=O)Nc1cc(-c2cnc3[nH]cc(C)c3c2)ccc1F` [Example 31, N-(2-fluoro-5-(3-methyl-1H-pyrrolo[2,3-b]pyridin-5-yl)phenyl)pent-2-ynamide], for which the IC50 at JAK3 and at ITK was less than 100 nM throughout.
As to `C[C@@H]1CCN(C(=O)CC#N)C[C@@H]1N(C)c1ncnc2[nH]ccc12` [CP-690550/Tofacitinib, Tofacitinib], the body weight entry in series [1] (60 mg/Kg) is given as “body weight change from day 1”. Besides, in series [1] (collagen-induced arthritis in mice, PO BID), the “effectiveness, suppression of the inflammatory response” value worked out at 97%.
